Test results: US20240360143A1, “[1,2,4]TRIAZOLO[4,3-A]PYRIMIDIN-7(8H)-ONE AS MITOCHONDRIAL PYRUVATE CARRIER INHIBITORS FOR USE IN THE TREATMENT OF CANCER” (MPC THERAPEUTICS SA, priority 2021, published 2024)

Key:
[1] = test system: CD8 T cells (OT1 splenocytes); test: In vitro priming of CD8 T cells (OT1 splenocytes), memory marker expression by flow cytometry; type: cell-based, mouse; settings: day 7, highest doses
Procedure: OT1 splenocytes were cultured for 3 days at a concentration of 10^6 cells per mL in RPMI medium (Gibco 61870-01) supplemented with 10% FBS, (Gibco 10270-106), 1% Penicillin/Streptomycin (Gibco 15070-063), 50 μM ß-mercaptoethanol, 1% HEPES (Gibco 15630-080), 1× Non-essential amino acids (Gibco 11140-035), 1% L-glutamine (Gibco 25030-081), 1 mM Sodium Pyruvate (Gibco 11360-039). Cells were additionally supplemented with hIL-2 100 U/ml (Glaxo-IMB), ovalbumin N4 peptide (257-264) 1 μg/ml (model peptide antigen from ovalbumin) and either different concentrations of Compound 45 or 47 or with their solvent DMSO as a control. At day 3, splenocytes were collected, washed and split, and cells were cultured for 4 additional days with 100 U/ml hIL-2 and hIL-7 (Peprotech 200-07) supplemented either with Compound 45 or 47 or DMSO. At day 7, flow cytometry analyses were performed for surface marker expression.
To evaluate the effects of MPC inhibition on T cell differentiation, OTI splenocytes were cultured in the presence of 1 μg/ml ovalbumin-derived N4 peptide, 100 IU/ml recombinant human IL-2 (rhIL-2) and the MPC inhibitors Compound 45 or 47 or control DMSO for 3 days. The cells were cultured for 4 more days in the presence of 100 IU/ml IL-2 and 10 ng/ml rhIL-7 (FIG. 1A) and the inhibitors or DMSO. When analyzing the surface expression of the central memory marker CD62L (FIG. 1B) and the pro-survival receptor CD127 (FIG. 1C) by flow cytometry on day 7, an increase in cells treated with the highest doses of compounds of the invention was observed compared to DMSO.

[2] = biological target: T1, mitochondrial pyruvate carrier (MPC) (Homo sapiens, UniProt O95563+Q9Y5U8); test: Bret IC50, inhibitory activity against MPC; type: cell-based
T1 sequence (Q9Y5U8 1-109): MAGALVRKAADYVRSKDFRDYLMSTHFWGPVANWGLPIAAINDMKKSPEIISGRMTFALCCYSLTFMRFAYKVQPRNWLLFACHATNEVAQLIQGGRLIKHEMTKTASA
T1 sequence (O95563 1-127): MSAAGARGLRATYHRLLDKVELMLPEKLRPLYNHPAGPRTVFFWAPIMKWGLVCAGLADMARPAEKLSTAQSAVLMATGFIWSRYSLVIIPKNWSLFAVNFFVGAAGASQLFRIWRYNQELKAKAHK
Text: The inhibition of mitochondrial pyruvate carrier (MPC) by compounds of the invention have been tested as follows and their inhibitory activity was expressed as IC50s values.
Table 2 below presents the IC50s of the compounds of the invention.

B16-OVA melanoma = test: Adoptive cell transfer of compound-treated OT1 CD8 T cells in B16-OVA melanoma tumor model; type: in vivo, mouse
Procedure: Activated CD45.1+OT-1 splenocytes were culture in vitro for 7 days as described above, collected and purified on a Ficoll gradient, allowing to separate dead and live splenocytes. Live splenocytes were counted with Trypan blue stain 0.4%. 100′000 or 2′000′000 live splenocytes were transferred into CD45.2+ host mice by tail vein injection.
B16-OVA cells were cultured in DMEM (GIBCO) with 10% FBS and 1% P/S before their subcutaneous injection into the mouse flank. Each mouse received 100′000 cells in a volume of 200 μl of PBS. 6 days after B16-OVA cells injection, tumors were measured, mice were randomized and lymphodepleted by irradiation (5 Gray). 7 days after B16-Ova injection, mice were adoptively transferred with the ACT protocol described previously. Following the ACT, mice received a vaccination of CpG (50 μg/mouse) and N4 Ova peptide (10 μg/mouse) diluted in PBS to obtain a total volume of 100 μl/mouse, injected subcutaneously at the tail base. Tumors were measured every 2 days and the tumor volume was calculated according to the formula: V=π×[d2×D]/6, where d is the minor tumor axis and D is the major tumor axis. At day 26 days post-tumor engraftment, tumors and spleens were dissected were then stained for flow cytometry analyses.
Briefly, 105 ovalbumin-expressing B16 melanoma cells were injected subcutaneously in 6-week-old mice. At day 6 post-engraftment, when a palpable tumor was present, mice were irradiated with 5Gy. The next day 105 Compound 45- or DMSO-treated OT1 cells were intravenously injected, followed by a subcutaneous vaccination of 50 μg CpG and 10 μg N4 Ova peptide (FIG. 2A). […] When analysing the blood 9 days post-adoptive cell transfer, one could observe an increase in number of transferred cells when treated in vitro with Compound 45 as compared to DMSO (FIG. 2D). The phenotype of the Compound 45-treated cells was biased towards memory, as there was a reduced percentage of short-lived effector T cells (FIG. 2E) and an increase in memory-precursor effector T cells and cells with a central memory phenotype (FIGS. 2F and 2G). When analysing the tumor upon dissection, more Compound 45-treated T cells were infiltrating the tumor (FIG. 2H).
In order to observe a stronger anti-tumor response of the transferred OT1 T cells, the previous experiment was repeated by transferring 2×10^6 DMSO- or Compound 45-treated OT1 T cells, instead of only 10^5 (FIG. 3A). […] When analysing the tumor upon dissection, no difference in T cell infiltration was observed (FIG. 3D). […] There was however no difference in terminally exhausted or progenitor exhausted T cells (FIGS. 3F and 3G). […] There was no difference in CD107a expression (FIG. 3O).

`O=c1cc(Cc2ccccc2)n2c(SCc3c(F)cccc3Cl)nnc2[nH]1` [Compound 45, 5-benzyl-3-[(2-chloro-6-fluorobenzyl)sulfanyl][1,2,4]triazolo[4,3-a]pyrimidin-7 (8H)-one] was tested, and the “cells positive for central memory marker CD62L” value ([1]; vs DMSO (FIG. 1B)) was “increase”, the “cells positive for pro-survival receptor CD127” value ([1]; vs DMSO (FIG. 1C)) was “increase” and the IC50 [2] was 117 nM. For the same molecule, the “number of treated T cells in the spleen” value (B16-OVA melanoma; 2×10^6 cells, spleen (FIG. 3H)) was “decreased”, the “central memory phenotype in the spleen” value (B16-OVA melanoma; 2×10^6 cells, spleen (FIG. 3I)) was “increased” and the “TCF1 expression in the spleen” value (B16-OVA melanoma; 2×10^6 cells, spleen (FIG. 3J)) was “trend towards increased”. For the same molecule, the “terminally exhausted T cells” value (B16-OVA melanoma; 2×10^6 cells, tumor (FIG. 3F)) was “no difference”, the “progenitor exhausted T cells” value (B16-OVA melanoma; 2×10^6 cells, tumor (FIG. 3G)) was “no difference” and the IFNy expression (B16-OVA melanoma; 2×10^6 cells, tumor cells restimulated with OVA peptide (FIG. 3K)) was “did not show difference”. For the same molecule, the TNF expression (B16-OVA melanoma; 2×10^6 cells, tumor cells restimulated with OVA peptide (FIG. 3L)) was “did not show difference”, the IL2 expression (B16-OVA melanoma; 2×10^6 cells, tumor cells restimulated with OVA peptide (FIG. 3M)) was “did not show difference” and the “Granzyme B expression” value (B16-OVA melanoma; 2×10^6 cells, tumor cells restimulated with OVA peptide (FIG. 3N)) was “increased”. For the same molecule, the CD107a expression (B16-OVA melanoma; 2×10^6 cells, tumor cells restimulated with OVA peptide (FIG. 3O)) was “no difference”, the “T cell infiltration in tumor” value (B16-OVA melanoma; 2×10^6 cells, tumor upon dissection (FIG. 3D)) was “no difference” and the “exhausted tumor infiltrating T cells” value (B16-OVA melanoma; 2×10^6 cells, vs DMSO (FIG. 3E)) was “more exhausted”. For the same molecule, the B16 tumor growth (B16-OVA melanoma; 2×10^6 treated OT1 cells transferred, vs DMSO (FIG. 3B)) was “strongly reduced”, the B16 tumor weight (B16-OVA melanoma; 2×10^6 treated OT1 cells, vs DMSO (FIG. 3C)) was “strongly reduced” and the “percentage of short-lived effector T cells” value (B16-OVA melanoma; 10^5 cells, blood 9 days post-ACT (FIG. 2E)) was “reduced”. The “memory-precursor effector T cells” value (B16-OVA melanoma; 10^5 cells, blood 9 days post-ACT (FIG. 2F)) was “increase”, the “cells with a central memory phenotype” value (B16-OVA melanoma; 10^5 cells, blood 9 days post-ACT (FIG. 2G)) was “increase” and the “number of transferred cells in blood” value (B16-OVA melanoma; 10^5 cells, blood 9 days post-ACT, vs DMSO (FIG. 2D)) was “increase”. The “number of treated T cells in the spleen” value (B16-OVA melanoma; 10^5 cells, spleen (FIG. 2L)) was “increased”, the “central memory phenotype in the spleen” value (B16-OVA melanoma; 10^5 cells, spleen (FIG. 2M)) was “increased” and the “TCF1 expression in the spleen” value (B16-OVA melanoma; 10^5 cells, spleen (FIG. 2N)) was “not significantly altered”. The IFNy expression (B16-OVA melanoma; 10^5 cells, tumor cells restimulated with OVA peptide (FIG. 2O)) was “did not show a significant increase”, the TNF expression (B16-OVA melanoma; 10^5 cells, tumor cells restimulated with OVA peptide (FIG. 2P)) was “did not show a significant increase” and the IL2 expression (B16-OVA melanoma; 10^5 cells, tumor cells restimulated with OVA peptide (FIG. 2Q)) was “did not show a significant increase”. The “Granzyme B expression” value (B16-OVA melanoma; 10^5 cells, tumor cells restimulated with OVA peptide (FIG. 2R)) was “did not show a significant increase”, the “expression of CD107a (LAMP1)” value (B16-OVA melanoma; 10^5 cells, tumor cells restimulated with OVA peptide (FIG. 2S)) was “increased” and the “treated T cells infiltrating the tumor” value (B16-OVA melanoma; 10^5 cells, tumor upon dissection (FIG. 2H)) was “more”. For the same molecule, the “exhausted tumor infiltrating T cells” value (B16-OVA melanoma; 10^5 cells, vs DMSO (FIG. 2I)) was “not significantly more or less exhausted”, the B16 tumor growth (B16-OVA melanoma; 10^5 treated OT1 cells transferred, vs DMSO (FIG. 2B)) was “reduced” and the Tumor weight (B16-OVA melanoma; 10^5 treated OT1 cells, vs DMSO (FIG. 2C)) was “not significantly reduced”.
